In ChEMBL document CHEMBL2150974 (J Med Chem, 2012):
The source made the active and inactive calls. No cut-off for these calls is given here.

Legend:
[1] = molecular target: T1, Mitogen-activated protein kinase 14 (Homo sapiens, UniProt Q16539); experiment: Inhibition of p38alpha by immunosorbent based kinase assay
[2] = molecular target: T1, Mitogen-activated protein kinase 14; experiment: Inhibition of p38alpha-dependent TNFalpha production in human whole blood
[3] = molecular target: RAC-alpha serine/threonine-protein kinase (Homo sapiens) (UniProt P31749); experiment: Inhibition of AKT1 at 10 uM
[4] = molecular target: T2, Serine/threonine-protein kinase PLK4 (Homo sapiens) (UniProt O00444); experiment: Inhibition of SAK at 10 uM
T2 sequence (whole entry): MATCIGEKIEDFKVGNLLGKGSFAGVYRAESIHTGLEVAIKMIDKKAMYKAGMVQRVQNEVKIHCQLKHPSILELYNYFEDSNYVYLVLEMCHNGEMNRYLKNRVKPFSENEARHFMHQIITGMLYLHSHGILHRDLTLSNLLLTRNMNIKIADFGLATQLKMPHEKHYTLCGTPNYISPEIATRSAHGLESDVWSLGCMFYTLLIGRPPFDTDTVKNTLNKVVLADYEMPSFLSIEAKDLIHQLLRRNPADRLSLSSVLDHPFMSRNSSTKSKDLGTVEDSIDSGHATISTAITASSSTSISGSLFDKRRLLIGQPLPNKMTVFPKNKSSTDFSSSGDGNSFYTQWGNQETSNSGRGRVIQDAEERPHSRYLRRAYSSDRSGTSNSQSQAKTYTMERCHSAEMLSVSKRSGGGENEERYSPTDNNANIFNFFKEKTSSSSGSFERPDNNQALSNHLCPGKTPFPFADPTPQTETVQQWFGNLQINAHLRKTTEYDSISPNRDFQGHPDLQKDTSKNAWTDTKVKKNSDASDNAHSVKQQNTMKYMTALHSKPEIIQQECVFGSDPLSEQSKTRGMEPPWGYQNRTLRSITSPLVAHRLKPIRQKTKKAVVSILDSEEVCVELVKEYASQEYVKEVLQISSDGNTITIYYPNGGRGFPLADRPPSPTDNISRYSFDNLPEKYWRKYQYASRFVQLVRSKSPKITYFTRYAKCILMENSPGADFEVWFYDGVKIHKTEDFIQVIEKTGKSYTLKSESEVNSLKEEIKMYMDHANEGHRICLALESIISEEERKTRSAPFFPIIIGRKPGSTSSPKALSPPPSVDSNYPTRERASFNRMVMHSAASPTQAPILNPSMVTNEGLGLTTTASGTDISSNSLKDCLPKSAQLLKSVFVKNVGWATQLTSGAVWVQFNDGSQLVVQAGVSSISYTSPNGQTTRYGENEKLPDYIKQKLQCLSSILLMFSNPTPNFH

[5] = molecular target: T3, NUAK family SNF1-like kinase 1 (Homo sapiens) (UniProt O60285); experiment: Inhibition of ARK5 at 10 uM
T3 sequence (whole entry): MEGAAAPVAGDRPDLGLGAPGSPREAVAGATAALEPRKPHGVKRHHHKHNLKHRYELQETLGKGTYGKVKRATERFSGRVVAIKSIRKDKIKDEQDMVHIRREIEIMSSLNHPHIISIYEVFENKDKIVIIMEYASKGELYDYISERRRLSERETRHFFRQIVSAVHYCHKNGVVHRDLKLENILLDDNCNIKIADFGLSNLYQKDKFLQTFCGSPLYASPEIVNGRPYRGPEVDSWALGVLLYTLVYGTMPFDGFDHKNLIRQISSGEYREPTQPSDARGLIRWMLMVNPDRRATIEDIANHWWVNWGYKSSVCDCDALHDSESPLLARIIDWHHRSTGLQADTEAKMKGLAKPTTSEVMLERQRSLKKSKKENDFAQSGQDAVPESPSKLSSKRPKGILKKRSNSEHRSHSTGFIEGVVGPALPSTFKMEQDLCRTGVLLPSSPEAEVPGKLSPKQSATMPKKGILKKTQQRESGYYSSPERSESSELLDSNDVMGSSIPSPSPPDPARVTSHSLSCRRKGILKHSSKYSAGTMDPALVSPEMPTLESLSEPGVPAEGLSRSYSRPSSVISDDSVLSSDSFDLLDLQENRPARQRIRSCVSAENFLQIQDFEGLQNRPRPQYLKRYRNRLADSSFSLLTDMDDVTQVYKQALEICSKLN

[6] = molecular target: BDNF/NT-3 growth factors receptor (Homo sapiens) (UniProt Q16620); experiment: Inhibition of TRKB at 10 uM
[7] = molecular target: Aurora kinase B (Homo sapiens) (UniProt Q96GD4); experiment: Inhibition of AuroraB at 10 uM
[8] = molecular target: Proto-oncogene tyrosine-protein kinase Src (Homo sapiens) (UniProt P12931); experiment: Inhibition of SRC at 10 uM
[9] = system: Serine/threonine-protein kinase B-raf (Homo sapiens), P15056 [V600E]; experiment: Inhibition of BRAF V600E mutant at 10 uM
[10] = molecular target: Vascular endothelial growth factor receptor 2 (Homo sapiens) (UniProt P35968); experiment: Inhibition of VEGFR2 at 10 uM
[11] = molecular target: Insulin receptor (Homo sapiens) (UniProt P06213); experiment: Inhibition of INSR at 10 uM
[12] = molecular target: Insulin-like growth factor 1 receptor (Homo sapiens) (UniProt P08069); experiment: Inhibition of IGF1R at 10 uM
[13] = molecular target: Hepatocyte growth factor receptor (Homo sapiens) (UniProt P08581); experiment: Inhibition of MET at 10 uM
[14] = molecular target: Focal adhesion kinase 1 (Homo sapiens) (UniProt Q05397); experiment: Inhibition of FAK at 10 uM
[15] = molecular target: Serine/threonine-protein kinase PLK1 (Homo sapiens) (UniProt P53350); experiment: Inhibition of PLK1 at 10 uM
[16] = molecular target: Tyrosine-protein kinase receptor UFO (Homo sapiens) (UniProt P30530); experiment: Inhibition of AXL at 10 uM
[17] = molecular target: Serine/threonine-protein kinase N1 (Homo sapiens) (UniProt Q16512); experiment: Inhibition of PRK1 at 10 uM
[18] = molecular target: Casein kinase II subunit alpha (Homo sapiens) (UniProt P68400); experiment: Inhibition of CK2alpha1 at 10 uM

Sequence of Tyrosine-protein kinase receptor UFO (Homo sapiens) (P30530 whole entry): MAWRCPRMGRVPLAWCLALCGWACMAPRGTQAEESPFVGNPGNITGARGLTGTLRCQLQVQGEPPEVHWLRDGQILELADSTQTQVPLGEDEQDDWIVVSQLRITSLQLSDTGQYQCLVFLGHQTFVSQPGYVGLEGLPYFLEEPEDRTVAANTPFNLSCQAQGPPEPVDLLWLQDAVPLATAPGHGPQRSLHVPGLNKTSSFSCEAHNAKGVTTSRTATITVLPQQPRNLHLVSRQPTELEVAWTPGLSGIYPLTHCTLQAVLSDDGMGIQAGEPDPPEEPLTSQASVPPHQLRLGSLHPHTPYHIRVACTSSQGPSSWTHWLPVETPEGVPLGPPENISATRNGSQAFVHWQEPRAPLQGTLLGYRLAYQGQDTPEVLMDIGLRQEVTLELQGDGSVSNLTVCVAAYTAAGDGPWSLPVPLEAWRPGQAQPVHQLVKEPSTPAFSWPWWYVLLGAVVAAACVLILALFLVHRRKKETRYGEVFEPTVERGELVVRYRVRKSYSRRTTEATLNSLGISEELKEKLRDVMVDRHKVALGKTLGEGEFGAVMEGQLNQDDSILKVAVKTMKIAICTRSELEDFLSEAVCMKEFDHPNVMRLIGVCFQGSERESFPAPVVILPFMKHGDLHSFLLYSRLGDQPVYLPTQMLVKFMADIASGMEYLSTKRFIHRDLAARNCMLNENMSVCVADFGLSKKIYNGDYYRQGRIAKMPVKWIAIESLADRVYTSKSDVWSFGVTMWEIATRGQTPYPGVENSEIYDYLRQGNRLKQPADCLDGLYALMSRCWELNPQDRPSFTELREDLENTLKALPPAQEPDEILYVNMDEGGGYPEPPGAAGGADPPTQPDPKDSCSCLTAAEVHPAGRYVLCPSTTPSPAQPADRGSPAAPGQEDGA
Sequence of Vascular endothelial growth factor receptor 2 (Homo sapiens) (P35968 whole entry): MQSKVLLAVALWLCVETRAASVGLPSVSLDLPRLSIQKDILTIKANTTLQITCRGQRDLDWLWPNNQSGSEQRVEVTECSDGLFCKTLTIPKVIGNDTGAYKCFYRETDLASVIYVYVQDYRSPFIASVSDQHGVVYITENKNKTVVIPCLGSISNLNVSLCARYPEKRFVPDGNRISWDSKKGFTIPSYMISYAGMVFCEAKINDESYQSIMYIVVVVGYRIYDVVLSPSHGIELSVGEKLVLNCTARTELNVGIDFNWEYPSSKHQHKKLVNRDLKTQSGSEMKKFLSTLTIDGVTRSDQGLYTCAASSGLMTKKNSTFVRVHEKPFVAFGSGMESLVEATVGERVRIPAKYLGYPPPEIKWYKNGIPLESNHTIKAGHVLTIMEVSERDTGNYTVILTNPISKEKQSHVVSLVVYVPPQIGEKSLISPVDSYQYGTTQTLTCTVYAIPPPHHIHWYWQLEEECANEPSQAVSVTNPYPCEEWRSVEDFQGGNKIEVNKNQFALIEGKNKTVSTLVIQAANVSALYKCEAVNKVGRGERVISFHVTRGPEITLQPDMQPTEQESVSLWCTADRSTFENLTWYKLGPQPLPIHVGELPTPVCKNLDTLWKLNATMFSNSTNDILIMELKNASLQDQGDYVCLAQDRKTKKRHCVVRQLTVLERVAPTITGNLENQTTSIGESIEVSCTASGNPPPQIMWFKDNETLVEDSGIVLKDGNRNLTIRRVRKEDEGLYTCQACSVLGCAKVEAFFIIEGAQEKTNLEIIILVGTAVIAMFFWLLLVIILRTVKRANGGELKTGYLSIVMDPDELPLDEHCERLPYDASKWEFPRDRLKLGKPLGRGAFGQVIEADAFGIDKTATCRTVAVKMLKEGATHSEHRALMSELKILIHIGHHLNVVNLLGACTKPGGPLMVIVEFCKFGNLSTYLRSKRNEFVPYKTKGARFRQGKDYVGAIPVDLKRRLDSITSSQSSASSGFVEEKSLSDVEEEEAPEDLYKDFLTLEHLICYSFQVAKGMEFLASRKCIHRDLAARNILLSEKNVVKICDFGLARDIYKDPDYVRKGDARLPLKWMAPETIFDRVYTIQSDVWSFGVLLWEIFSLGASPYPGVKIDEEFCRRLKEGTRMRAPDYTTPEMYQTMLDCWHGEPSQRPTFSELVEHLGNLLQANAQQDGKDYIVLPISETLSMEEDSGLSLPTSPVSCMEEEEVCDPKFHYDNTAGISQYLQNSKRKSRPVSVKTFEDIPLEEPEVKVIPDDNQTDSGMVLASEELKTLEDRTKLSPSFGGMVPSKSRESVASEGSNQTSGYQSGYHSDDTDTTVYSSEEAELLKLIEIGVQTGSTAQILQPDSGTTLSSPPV
Sequence of BDNF/NT-3 growth factors receptor (Homo sapiens) (Q16620 32-822 limits assumed): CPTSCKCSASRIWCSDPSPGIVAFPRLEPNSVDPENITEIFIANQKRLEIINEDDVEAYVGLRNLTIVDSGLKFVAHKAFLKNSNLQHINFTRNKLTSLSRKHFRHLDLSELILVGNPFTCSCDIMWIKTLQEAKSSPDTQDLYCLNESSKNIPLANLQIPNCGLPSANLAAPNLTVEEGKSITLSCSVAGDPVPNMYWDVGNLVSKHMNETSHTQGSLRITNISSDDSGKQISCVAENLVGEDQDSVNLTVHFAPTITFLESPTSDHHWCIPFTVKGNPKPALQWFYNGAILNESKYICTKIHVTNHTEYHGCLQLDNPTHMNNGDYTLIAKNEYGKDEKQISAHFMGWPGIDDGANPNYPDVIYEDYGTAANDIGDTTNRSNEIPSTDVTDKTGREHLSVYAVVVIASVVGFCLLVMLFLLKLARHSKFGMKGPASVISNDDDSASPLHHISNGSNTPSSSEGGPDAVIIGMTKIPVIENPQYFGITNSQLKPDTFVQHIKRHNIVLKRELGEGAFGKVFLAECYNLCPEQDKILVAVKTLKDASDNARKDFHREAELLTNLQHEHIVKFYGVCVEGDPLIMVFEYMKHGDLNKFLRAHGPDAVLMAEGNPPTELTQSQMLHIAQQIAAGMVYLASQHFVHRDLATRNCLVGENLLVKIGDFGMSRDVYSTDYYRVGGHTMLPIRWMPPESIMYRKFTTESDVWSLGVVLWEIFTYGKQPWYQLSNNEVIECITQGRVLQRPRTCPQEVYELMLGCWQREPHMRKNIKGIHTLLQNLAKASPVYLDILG
Sequence of Insulin-like growth factor 1 receptor (Homo sapiens) (P08069 31-736 limits assumed): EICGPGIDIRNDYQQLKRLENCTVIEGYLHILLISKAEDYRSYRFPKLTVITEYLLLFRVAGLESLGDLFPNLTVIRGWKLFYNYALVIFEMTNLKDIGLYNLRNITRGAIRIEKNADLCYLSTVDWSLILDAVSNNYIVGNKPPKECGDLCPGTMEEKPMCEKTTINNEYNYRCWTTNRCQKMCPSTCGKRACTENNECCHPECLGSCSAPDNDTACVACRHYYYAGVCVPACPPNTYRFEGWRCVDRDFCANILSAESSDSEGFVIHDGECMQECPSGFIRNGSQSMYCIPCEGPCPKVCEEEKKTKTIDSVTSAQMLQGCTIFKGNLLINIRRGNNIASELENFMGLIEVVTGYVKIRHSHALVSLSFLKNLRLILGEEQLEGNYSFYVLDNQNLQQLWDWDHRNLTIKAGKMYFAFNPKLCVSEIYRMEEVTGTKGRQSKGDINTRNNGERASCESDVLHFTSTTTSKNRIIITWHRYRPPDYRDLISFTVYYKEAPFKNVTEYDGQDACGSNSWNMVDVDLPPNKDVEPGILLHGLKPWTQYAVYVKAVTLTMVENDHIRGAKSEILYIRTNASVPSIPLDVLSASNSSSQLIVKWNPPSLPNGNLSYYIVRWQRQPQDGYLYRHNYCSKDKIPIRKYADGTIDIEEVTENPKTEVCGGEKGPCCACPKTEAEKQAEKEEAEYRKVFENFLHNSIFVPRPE
Sequence of Insulin-like growth factor 1 receptor (Homo sapiens) (P08069 741-1367 limits assumed): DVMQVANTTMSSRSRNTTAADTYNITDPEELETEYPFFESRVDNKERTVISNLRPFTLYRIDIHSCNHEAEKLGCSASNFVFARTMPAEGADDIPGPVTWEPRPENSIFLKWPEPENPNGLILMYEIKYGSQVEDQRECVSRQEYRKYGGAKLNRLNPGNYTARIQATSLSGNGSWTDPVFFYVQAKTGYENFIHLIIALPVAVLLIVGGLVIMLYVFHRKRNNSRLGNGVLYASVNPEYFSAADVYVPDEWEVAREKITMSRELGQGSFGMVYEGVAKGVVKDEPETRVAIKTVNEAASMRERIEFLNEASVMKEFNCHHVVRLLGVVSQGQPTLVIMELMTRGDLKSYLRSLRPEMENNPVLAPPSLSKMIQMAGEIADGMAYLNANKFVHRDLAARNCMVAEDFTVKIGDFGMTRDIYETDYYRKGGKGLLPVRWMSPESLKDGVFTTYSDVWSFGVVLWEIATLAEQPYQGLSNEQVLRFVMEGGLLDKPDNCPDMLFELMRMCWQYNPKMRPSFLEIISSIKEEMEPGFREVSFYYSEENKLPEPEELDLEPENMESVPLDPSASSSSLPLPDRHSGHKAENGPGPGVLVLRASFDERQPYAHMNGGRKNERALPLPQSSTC
Sequence of RAC-alpha serine/threonine-protein kinase (Homo sapiens) (P31749 whole entry): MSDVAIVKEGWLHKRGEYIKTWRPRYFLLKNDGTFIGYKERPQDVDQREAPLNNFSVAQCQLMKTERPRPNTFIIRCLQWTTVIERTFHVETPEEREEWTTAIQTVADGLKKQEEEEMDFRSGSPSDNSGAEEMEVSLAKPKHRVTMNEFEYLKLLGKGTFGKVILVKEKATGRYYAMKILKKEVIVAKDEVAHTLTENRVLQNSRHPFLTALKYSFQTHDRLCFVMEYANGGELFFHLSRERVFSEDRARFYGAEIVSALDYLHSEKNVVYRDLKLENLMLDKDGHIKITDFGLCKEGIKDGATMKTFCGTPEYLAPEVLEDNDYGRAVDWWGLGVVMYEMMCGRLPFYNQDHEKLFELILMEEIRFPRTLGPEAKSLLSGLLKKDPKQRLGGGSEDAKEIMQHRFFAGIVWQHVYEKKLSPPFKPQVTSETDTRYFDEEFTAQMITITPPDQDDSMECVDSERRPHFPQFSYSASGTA

Compound | IC50 [1] [nM] | IC50 [2] [nM] | inhibition [3] | inhibition [4] | inhibition [5] | inhibition [6] | inhibition [7] | inhibition [8] | inhibition [9] | inhibition [10] | inhibition [11] | inhibition [12] | inhibition [13] | inhibition [14] | inhibition [15] | inhibition [16] | inhibition [17] | inhibition [18]
CC1(C)OC[C@H](COc2cccc3c2CCc2cc(Nc4ccccc4N)ccc2C3=O)O1 | 1040 | 158000 | inactive | inactive | inactive | inactive | inactive | inactive | inactive | inactive | inactive | inactive | inactive | inactive | inactive | inactive | inactive | inactive
Nc1ccccc1Nc1ccc2c(c1)CCc1c(OC[C@H](O)CO)cccc1C2=O | 40 | 78800 | inactive | inactive | inactive | inactive | inactive | inactive | inactive | inactive | inactive | inactive | inactive | inactive | inactive | inactive | inactive | inactive
CC1(C)OC[C@@H](COc2ccc3c(c2)CCc2cc(Nc4ccc(F)cc4F)ccc2C3=O)O1 | 360 | 123000 | inactive | inactive | inactive | inactive | inactive | inactive | inactive | inactive | inactive | inactive | inactive | inactive | inactive | inactive | inactive | inactive
O=C1c2ccc(Nc3ccc(F)cc3F)cc2CCc2ccc(OC[C@@H](O)CO)cc21 |  |  | inactive | inactive | inactive | inactive | inactive | inactive | inactive | inactive | inactive | inactive | inactive | inactive | inactive | inactive | inactive | inactive
O=C1c2ccc(Nc3ccc(F)cc3F)cc2CCc2c(OC[C@H](O)CO)cccc21 | 20 | 100000 | inactive | inactive | inactive | inactive | inactive | inactive | inactive | inactive | inactive | inactive | inactive | inactive | inactive | inactive | inactive | inactive
Nc1ccccc1Nc1ccc2c(c1)CCc1ccc(OC[C@H](O)CO)cc1C2=O | 20 | 80 | inactive | inactive | inactive | inactive | inactive | inactive | inactive | inactive | inactive | inactive | inactive | inactive | inactive | inactive | inactive | inactive

Now from value to compound:

IC50 [1] [nM] | IC50 [2] [nM] | inhibition [3] | inhibition [4] | inhibition [5] | inhibition [6] | inhibition [7] | inhibition [8] | inhibition [9] | inhibition [10] | inhibition [11] | inhibition [12] | inhibition [13] | inhibition [14] | inhibition [15] | inhibition [16] | inhibition [17] | inhibition [18] | Compound
40 | 5400 | inactive | inactive | inactive | inactive | inactive | inactive | inactive | inactive | inactive | inactive | inactive | inactive | inactive | inactive | inactive | inactive | COc1ccc2c(c1)C(=O)c1ccc(Nc3ccc(F)cc3Cl)cc1CC2
50 | 4300 | inactive | inactive | inactive | inactive | inactive | inactive | inactive | inactive | inactive | inactive | inactive | inactive | inactive | inactive | inactive | inactive | COc1ccc2c(c1)C(=O)c1ccc(Nc3cc(F)cc(F)c3F)cc1CC2
60 | 3900 | inactive | inactive | inactive | inactive | inactive | inactive | inactive | inactive | inactive | inactive | inactive | inactive | inactive | inactive | inactive | inactive | COc1ccc2c(c1)C(=O)c1ccc(Nc3ccc(F)cc3C)cc1CC2
